In US20220104468A1, “MODULATION OF LC3-ASSOCIATED ENDOCYTOSIS PATHWAY AND GENETICALLY MODIFIED NON-HUMAN ANIMALS AS A MODEL OF NEUROINFLAMMATION AND NEURODEGENERATION” (St. Jude Children's Research Hospital, priority 2019, published 2022):

Assays:
Atg16L^ΔWD mice [1] = assay: Novel object recognition (NOR) after MCC950 treatment; assay type: in vivo, mouse; conditions: MCC950 8 weeks, trending towards wild-type littermates
Protocol: Novel object recognition (NOR) was performed in an open-field box (40 cm×40 cm). Mice were allowed to acclimate to the testing room for 48h. For habituation, mice were allowed to explore the open-field for 15 min per day for two days. Mice were then exposed to two identical objects for 10 min on the day of testing. 2h later a novel object was introduced, and mice were allowed to explore for 5 min during the test phase. The time spent exploring each object was quantified manually. Novel object preference (%) and the discrimination index ((time with novel)/(novel+familiar)*100) were calculated for each mouse.
(§1) Mice with established disease were treated for 8-weeks with either a vehicle (placebo) control or MCC950 (Invivogen) as reported previously (Gordon et al. 2018 Science Translational Medicine 10(465)). In brief, MCC950 was suspended in 100% DMSO and titrated to a working dose using sterile water. The final concentration of DMSO in the injection was <1%. Matching solution without MCC950 was used as the vehicle (placebo). Mice were injected every 3 days for 8-weeks at a dose of 10 mg/kg via intraperitoneal injection.

Atg16L^ΔWD mice [2] = assay: Y-maze spontaneous alternation after MCC950 treatment; assay type: in vivo, mouse; conditions: MCC950 8 weeks, trending towards wild-type littermates
Protocol: For Y-maze spontaneous alternation analysis, mice were housed in the testing room and allowed to acclimate for 48h. The Y-maze test consisted of a single 5 min trial per mouse. Spontaneous Alternation [%] was defined as consecutive entries in 3 different arms (ABC), divided by the number of possible alternations (total arm entries minus 2). Mice with less than 5 arm entries during the 5 min trial were excluded from the analysis.
as §1

Atg16L^ΔWD mice [3] = assay: Brain pathology by immunofluorescence/TUNEL after 8 weeks of MCC950 in mice with established disease; assay type: in vivo, mouse; conditions: MCC950 10 mg/kg i.p. every 3 days for 8 weeks
Protocol: Inflammasome inhibition has recently been proposed as putative therapeutic approach that reduces neuroinflammation and Tau phosphorylation (PMID: 31748742). Thus, Atg16L WD-domain deficient mice (Atg16L^ΔWD mice) with established disease (starting at 20 months of age) and behavioral impairment, as measured by both impaired spontaneous alternation and NOR (FIGS. 19A-19B), were treated with the brain-penetrant inflammasome inhibitor MCC950. […] However, no difference in Aβ deposition was observed between placebo and MCC950-treated mice (FIG. 19E).
Atg16^ΔWD mice were generated by deletion of the WD-domain of Atg16L, as previously described (Rai et al 2018(online) Autophagy 15(4)599-612). In brief, 2 stop codons were inserted into exon 6 of murine Atg16L1 immediately after glutamate E230 to preserve binding sites for WIPI2 (required for canonical autophagy) but prevent translation of the linker and WD-domain. Mice were produced and maintained on a mixed 129, C57BL/6 background. Unless otherwise noted, all experiments were performed on mixed sex cohorts at 2 years of age. Mice treated with MCC950 or placebo were mixed sex cohorts, 20 months of age at time of treatment onset and were treated for 8-weeks. The genetic backgrounds of mice used were assessed at the DartMouse™ Speed Congenic Core Facility at the Geisel School of Medicine at Dartmouth. DartMouse uses the Illumina, Inc. (San Diego, Calif.) Infinium Genotyping Assay to interrogate a custom panel of 5307 SNPs spread throughout the genome. The raw SNP data was analyzed using DartMouse's SNaP-Map™ and Map-Synth™ software, allowing the determination for each mouse of the genetic background at each SNP location. Background strain percentage was subsequently compared against markers of disease pathology to evaluate any influence stemming from variations in background (FIG. 18).
For preparation of brain tissue see “Preparation of brain samples” below. Slides were subjected to antigen retrieval using 1% sodium citrate boiling for 20 min followed by 3× PBS washing. Slides were blocked in 0.5% BSA in PBS. Antibody staining was carried out as described above. Following final washing, slides were mounted using ProLong Diamond Anti-Fade mounting media with DAPI.
Image analysis for relative Aβ, Iba1, and phospho-Tau staining was achieved by quantifying the mean fluorescent intensity (MFI) of either Iba1 or phospho-Tau signal using NIS-elements. Analysis and quantification of microglial morphology was achieved using Slidebook 6 software. Morphological state was determined by measuring cell diameter following 3D reconstruction and confirmed by manual counting/analysis of microglia shape per defined field across multiple areas of each slide. […]

BV2 microglia [4] = assay: Membrane-associated GFP-LC3 by flow cytometry; assay type: cell-based, murine; conditions: parental BV2 microglia, latrunculin A versus vehicle
Protocol: (§2) In an attempt to delineate the discrepancies in β-amyloid accumulation in the animal models presented above and the role of the autophagy proteins in this process, BV2 murine microglial cells expressing GFP-LC3 that are deficient in FIP200, ATG5, or Rubicon were engineered using CRISPR/Cas9 (FIG. 3A). Cells were cultured in the presence of neurotoxic oligomeric AP 1-42 labeled with TAMRA.
To quantify membrane association of GFP-LC3, cells were harvested and permeabilized using 200 μg/ml digitonin for 15 min on ice. Cytosolic GFP-LC3 was removed by washing cells 5× in cold PBS. Cells were then resuspended in 0.5% BSA in PBS for analysis by flow cytometry as described above.
(§3) To delineate between phagocytosis and endocytosis, cells were treated as indicated with the phagocytic inhibitor latrunculin A. Cells were pre-treated for 1 h prior to the addition of target substrates. The following control substrates were used, zymosan (phagocytosis) and dextran (endocytosis), both were fluorescently labeled as indicated. Co-incubation with specific substrates was carried out at 37° C. for 3h. Cells were either fixed for imaging or analyzed by flow cytometry as described above respectively.

BV2 microglia [5] = assay: Phagocytosis versus endocytosis substrate uptake with latrunculin A (flow cytometry, imaging); assay type: cell-based, murine; conditions: 50 μM latrunculin A
Protocol: as §2
For all uptake assays, cells were analyzed without fixation. For membrane-associated GFP-LC3 analysis, cells were processed as described below. For brain infiltrating monocytes, cells were isolated as described using the Neural Tissue Dissociation Kit (Miltenyi). Primary cells were fixed, permeabilized, and stained using the Cyto Fix/Perm Staining Kit (BD Bioscience) and the indicated, conjugated primary antibodies. For all experiments, cells were analyzed using a Sony SP6800 Spectral Analyzer (Sony). All analyses were performed using FlowJo v10.4 (Tree Star). Fluorescent compensation was performed using BD compensation beads (BD Bioscience).
as §3

BV2 cells = assay: Pro-inflammatory gene expression by qPCR after oligomeric Aβ1-42; assay type: cell-based, murine; conditions: BV2 cells treated with Aβ1-42
Protocol: Similarly, the effects of Aβ1-42 on microglia were examined. As expected, BV2 cells treated with Aβ1-42 had elevated pro-inflammatory gene expression, including IL-1β, IL-6, CCL5, and TNFα as reported (Pan et al. (2011) Mol Neurodegener 6:45) and consistent with human disease.
(§4) Both labeled and unlabeled Ab1-42 was purchased in lyophilized form and resuspended according to the manufacturer's recommendation at a concentration of 100 μM (Anaspec). In brief, Ab1-42 was resuspended to 5 mM in DMSO and then adjusted to 100 μM using DMEM/F12 culture media. Oligomerization was allowed to occur for 24h at 4° C. prior to addition to cells at 1 μM unless otherwise indicated.
Total RNA was isolated from cells or tissue using the RNeasy Kit (Qiagen) according to the manufacturer's instructions. First-strand synthesis was performed using M-MLV reverse transcriptase (Invitrogen). Realtime PCR was performed using SYBR GREEN PCR master mix (Applied Biosystems) in an Applied Biosystems 7900HT thermocycler using SyBr Green detection protocol as outlined by the manufacturer using the following PCR conditions: 50° C. for 2 min, 95° C. for 10 min, and 40 cycles of 95° C. for 15s and 60° C. for 1 min. mRNA was normalized to actin allowing for comparison of mRNA levels. Please see key reagents table for qPCR primer sequences.

[6] = tested on: BV2 murine microglial cells expressing GFP-LC3; assay: LC3 recruitment/co-localization to β-amyloid in GFP-LC3 BV2 cells (imaging); assay type: cell-based; conditions: parental BV2 GFP-LC3 cells, TAMRA-labeled oligomeric peptide
Protocol: as §2, §4
For all non-live cell-based imaging, cells were cultured in 4-well chamber slides (Ibidi) and were fixed and stained as indicated. In brief, cells were fixed with 4% PFA for 10 min followed by permeabilization using 200 μg/ml digitonin for 10 min. Cells were blocked in 0.5% BSA in PBS for 30 min prior to staining with primary antibodies overnight at 4° C. Cells were then washed 3× in PBS and then stained with the indicated fluorescent secondary antibodies for 30 min. Cells were subsequently washed 3× with PBS and post-fixed in 1% PFA for 10 min prior to imaging. […]

In the case of `CC(C)(O)c1coc(S(=O)(=O)NC(=O)Nc2c3c(cc4c2CCC4)CCC3)c1` [MCC950], the “behavioral and memory capacity in NOR (novel object preference, discrimination index)” value (Atg16L^ΔWD mice [1]) is reported as “restoration”, the “behavioral and memory capacity in the Y-maze (spontaneous alternation)” value (Atg16L^ΔWD mice [2]) is reported as “restoration” and the “microglial activation (Iba1 staining, hippocampus)” value (Atg16L^ΔWD mice [3]; 20 months at onset, compared to placebo) is reported as “reduced”. The “Aβ deposition (hippocampus)” value (Atg16L^ΔWD mice [3]; versus placebo) was “no difference”, the “Tau phosphorylation (S199/202, CA3-field)” value (Atg16L^ΔWD mice [3]; versus placebo) was “massive reduction” and the “neurodegeneration as measured by TUNEL staining (CA3-field)” value (Atg16L^ΔWD mice [3]; versus placebo) was “massive reduction”.
With `C/C1=C/C(=O)O[C@@H]2C[C@@H](CC[C@H](C)/C=C\C=C\CC1)O[C@@](O)([C@@H]1CSC(=O)N1)C2` [latrunculin A] the “association of LC3 to endosomal membranes in response to β-amyloid” value (BV2 microglia [4]) was “did not alter”, the “uptake of the endocytic substrate dextran” value (BV2 microglia [5]; dextran 500 ng/ml) was “had no effect” and the “internalization of the phagocytic substrate zymosan” value (BV2 microglia [5]; zymosan 4:1 particle:cell) was “prevented the internalization”. The “uptake of β-amyloid” value (BV2 microglia [5]; β-amyloid 1 μM) was “had no effect”.
For “Aβ1-42: neurotoxic oligomeric β-amyloid 1-42 peptide, labeled or unlabeled (Anaspec)”, the “pro-inflammatory gene expression, including IL-1β, IL-6, CCL5, and TNFα” value (BV2 cells) was “elevated” and the “co-localization/recruitment of LC3 to the β-amyloid” value [6] was “induced rapid co-localization”.
